Measurements taken from PubChem BioAssay (NCI).
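Grown in 96-well plates, cells were treated for 48 hours with each compound at five concentrations. Insufficient inhibition: endpoint recorded as highest concentration tested. Here, GI50 denotes the concentration required for 50% inhibition of growth. TGI: total growth inhibition.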

Assays:
Experiment in all cases: NCI tumour cell line growth inhibition, 48 h
HCC-2998 colon = test system: HCC-2998 colon
RXF 393 renal = test system: RXF 393 renal
HT29 colon = test system: HT29 colon
UO-31 renal = test system: UO-31 renal
MDA-MB-231 breast = test system: MDA-MB-231 breast
786-0 renal = test system: 786-0 renal
OVCAR-3 ovarian = test system: OVCAR-3 ovarian
HCT-116 colon = test system: HCT-116 colon
UACC-257 melanoma = test system: UACC-257 melanoma
SW-620 colon = test system: SW-620 colon
SK-MEL-5 melanoma = test system: SK-MEL-5 melanoma
SK-MEL-28 melanoma = test system: SK-MEL-28 melanoma
U251 CNS = test system: U251 CNS
ACHN renal = test system: ACHN renal
HCT-15 colon = test system: HCT-15 colon
NCI-H522 lung = test system: NCI-H522 lung
TK-10 renal = test system: TK-10 renal
SNB-75 CNS = test system: SNB-75 CNS
UACC-62 melanoma = test system: UACC-62 melanoma
SN12C renal = test system: SN12C renal
CCRF-CEM leukemia = test system: CCRF-CEM leukemia
NCI-H23 lung = test system: NCI-H23 lung
SNB-19 CNS = test system: SNB-19 CNS
A498 renal = test system: A498 renal
MCF7 breast = test system: MCF7 breast
NCI-H226 lung = test system: NCI-H226 lung
EKVX NSCLC = test system: EKVX NSCLC
A549 NSCLC = test system: A549 NSCLC
OVCAR-8 ovarian = test system: OVCAR-8 ovarian
IGROV1 ovarian = test system: IGROV1 ovarian
KM12 colon = test system: KM12 colon
MOLT-4 leukemia = test system: MOLT-4 leukemia
HL-60(TB) leukemia = test system: HL-60(TB) leukemia
DU-145 prostate = test system: DU-145 prostate
COLO 205 colon = test system: COLO 205 colon
MDA-MB-435 = test system: MDA-MB-435
BT-549 breast = test system: BT-549 breast
OVCAR-4 ovarian = test system: OVCAR-4 ovarian
PC-3 prostate = test system: PC-3 prostate
SF-539 CNS = test system: SF-539 CNS
HS 578T breast = test system: HS 578T breast
OVCAR-5 ovarian = test system: OVCAR-5 ovarian
SK-MEL-2 melanoma = test system: SK-MEL-2 melanoma
HOP-62 NSCLC = test system: HOP-62 NSCLC
SK-OV-3 ovarian = test system: SK-OV-3 ovarian
M14 melanoma = test system: M14 melanoma
RPMI-8226 leukemia = test system: RPMI-8226 leukemia
NCI/ADR-RES ovarian = test system: NCI/ADR-RES ovarian
LOX IMVI melanoma = test system: LOX IMVI melanoma
T-47D breast = test system: T-47D breast
K-562 leukemia = test system: K-562 leukemia
SF-268 CNS = test system: SF-268 CNS
CAKI-1 renal = test system: CAKI-1 renal
SF-295 CNS = test system: SF-295 CNS
NCI-H460 lung = test system: NCI-H460 lung
MALME-3M melanoma = test system: MALME-3M melanoma

SMILES: NS(=O)(=O)N(c1cc(C(F)(F)F)cc(C(F)(F)F)c1)C1CCN(Cc2ccc(C(F)(F)F)cc2)CC1
- GI50 (HCC-2998 colon): 6.9 µM
- TGI (HCC-2998 colon): 13.4 µM
- GI50 (RXF 393 renal): 5.89 µM
- TGI (RXF 393 renal): 12.2 µM
- GI50 (HT29 colon): 2.89 µM
- TGI (HT29 colon): 10.2 µM
- GI50 (UO-31 renal): 3.17 µM
- TGI (UO-31 renal): 9.87 µM
- GI50 (MDA-MB-231 breast): 9.65 µM
- TGI (MDA-MB-231 breast): 20.8 µM
- GI50 (786-0 renal): 7.47 µM
- TGI (786-0 renal): 14.1 µM
- GI50 (OVCAR-3 ovarian): 6.23 µM
- TGI (OVCAR-3 ovarian): 12.6 µM
- GI50 (HCT-116 colon): 5.41 µM
- TGI (HCT-116 colon): 11.4 µM
- GI50 (UACC-257 melanoma): 7.54 µM
- TGI (UACC-257 melanoma): 15 µM
- GI50 (SW-620 colon): 6.77 µM
- TGI (SW-620 colon): 15.4 µM
- GI50 (SK-MEL-5 melanoma): 7.63 µM
- TGI (SK-MEL-5 melanoma): 14.7 µM
- GI50 (SK-MEL-28 melanoma): 8.5 µM
- TGI (SK-MEL-28 melanoma): 17.7 µM
- GI50 (U251 CNS): 5.92 µM
- TGI (U251 CNS): 12.7 µM
- GI50 (ACHN renal): 7.92 µM
- TGI (ACHN renal): 14.6 µM
- GI50 (HCT-15 colon): 5.88 µM
- TGI (HCT-15 colon): 12.5 µM
- GI50 (NCI-H522 lung): 6.42 µM
- TGI (NCI-H522 lung): 13.2 µM
- GI50 (TK-10 renal): 7.03 µM
- TGI (TK-10 renal): 14.5 µM
- GI50 (SNB-75 CNS): 2.86 µM
- TGI (SNB-75 CNS): 13 µM
- GI50 (UACC-62 melanoma): 7.14 µM
- TGI (UACC-62 melanoma): 16.3 µM
- GI50 (SN12C renal): 6.86 µM
- TGI (SN12C renal): 13.7 µM
- GI50 (CCRF-CEM leukemia): 8.98 µM
- TGI (CCRF-CEM leukemia): 24.2 µM
- GI50 (NCI-H23 lung): 6.88 µM
- TGI (NCI-H23 lung): 14 µM
- GI50 (SNB-19 CNS): 9.39 µM
- TGI (SNB-19 CNS): 20.2 µM
- GI50 (A498 renal): 5.61 µM
- TGI (A498 renal): 12 µM
- GI50 (MCF7 breast): 6.09 µM
- TGI (MCF7 breast): 12.3 µM
- GI50 (NCI-H226 lung): 7.9 µM
- TGI (NCI-H226 lung): 15.5 µM
- GI50 (EKVX NSCLC): 7.18 µM
- TGI (EKVX NSCLC): 15.2 µM
- GI50 (A549 NSCLC): 7.35 µM
- TGI (A549 NSCLC): 15.6 µM
- GI50 (OVCAR-8 ovarian): 8.35 µM
- TGI (OVCAR-8 ovarian): 17.4 µM
- GI50 (IGROV1 ovarian): 5.56 µM
- TGI (IGROV1 ovarian): 11.6 µM
- GI50 (KM12 colon): 6.81 µM
- TGI (KM12 colon): 14.9 µM
- GI50 (MOLT-4 leukemia): 3.77 µM
- TGI (MOLT-4 leukemia): 15.9 µM
- GI50 (HL-60(TB) leukemia): 1.63 µM
- TGI (HL-60(TB) leukemia): 7.84 µM
- GI50 (DU-145 prostate): 7.87 µM
- TGI (DU-145 prostate): 15.4 µM
- GI50 (COLO 205 colon): 7.86 µM
- TGI (COLO 205 colon): 14.6 µM
- GI50 (MDA-MB-435): 7.04 µM
- TGI (MDA-MB-435): 13.6 µM
- GI50 (BT-549 breast): 7.99 µM
- TGI (BT-549 breast): 14.7 µM
- GI50 (OVCAR-4 ovarian): 6.89 µM
- TGI (OVCAR-4 ovarian): 14.5 µM
- GI50 (PC-3 prostate): 4.56 µM
- TGI (PC-3 prostate): 12.5 µM
- GI50 (SF-539 CNS): 7.8 µM
- TGI (SF-539 CNS): 15.3 µM
- GI50 (HS 578T breast): 6.34 µM
- TGI (HS 578T breast): 22.9 µM
- GI50 (OVCAR-5 ovarian): 7.88 µM
- TGI (OVCAR-5 ovarian): 16 µM
- GI50 (SK-MEL-2 melanoma): 9.91 µM
- TGI (SK-MEL-2 melanoma): 18.3 µM
- GI50 (HOP-62 NSCLC): 7.94 µM
- TGI (HOP-62 NSCLC): 15 µM
- GI50 (SK-OV-3 ovarian): 9.26 µM
- TGI (SK-OV-3 ovarian): 22.2 µM
- GI50 (M14 melanoma): 7.57 µM
- TGI (M14 melanoma): 14.5 µM
- GI50 (RPMI-8226 leukemia): 6.88 µM
- TGI (RPMI-8226 leukemia): 20.3 µM
- GI50 (NCI/ADR-RES ovarian): 6.82 µM
- TGI (NCI/ADR-RES ovarian): 13.3 µM
- GI50 (LOX IMVI melanoma): 7.43 µM
- TGI (LOX IMVI melanoma): 14 µM
- GI50 (T-47D breast): 5.61 µM
- TGI (T-47D breast): 11.9 µM
- GI50 (K-562 leukemia): 0.409 µM
- TGI (K-562 leukemia): 10.3 µM
- GI50 (SF-268 CNS): 7.55 µM
- TGI (SF-268 CNS): 17.9 µM
- GI50 (CAKI-1 renal): 5.04 µM
- TGI (CAKI-1 renal): 11.1 µM
- GI50 (SF-295 CNS): 6.82 µM
- TGI (SF-295 CNS): 13.5 µM
- GI50 (NCI-H460 lung): 7.49 µM
- TGI (NCI-H460 lung): 16.4 µM
- GI50 (MALME-3M melanoma): 7.47 µM
- TGI (MALME-3M melanoma): 14.2 µM
